# Target: T1, rHIV protease (Human immunodeficiency virus type 1 group M subtype B, UniProt P03366)
# T1 construct: the reaction is initiated with purified 0.01-1 mg HIV protease
# Test: Inhibition of hydrolysis of a peptide substrate by rHIV protease (HPLC, Dixon analysis)
# Format: biochemical, HIV
# Conditions: substrate Ac-Arg-Ala-Ser-Gln-Asn-Tyr-Pro-Val-Val-NH2, MENDT buffer pH 6.0, 37° C.; Ki from Dixon analysis
# Protocol: The data in the following table is representative of inhibition produced by these compounds.
# A typical assay contains […] MENDT buffer (50 mM Mes (pH 6.0; 2-(N-morpholino)ethanesulfonic acid), 1 mM EDTA, 1 mM dithiothreitol, 200 mM NaCl, 0.1% Triton X100); 2, 3, or 6 mM N-acenyl-L-arginyl-L-alanyl-L-seryl-L-glutaminyl-L-asparaginyl-L-tyrosyl-L-prolyl-L-valyl-L-valinamide (Ac-Arg-Ala-Ser-Gln-Asn-Tyr-Pro-Val-Val-[…]NH2; Km =7 mM); and micromolar and sub-micromolar concentrations of synthetic compounds. Following incubation at 37° C. for several min, the reaction is initiated with purified 0.01-1 mg HIV protease. Reaction mixtures (37° C.) are quenched after 10-20 min with an equal volume of cold 0.6N trichloroacetic acid, and, following centrifugation to remove precipitated material, peptidolysis products are analyzed by reverse phase HPLC (Beckman Ultrasphere ODS, 4.5 mm×[…]; mobile phase; 5-20% acetonitrile/H2 O--0.1% TFA (15 min), 20% acetonitrile/H2 O--0.1% TFA (5 min) at 1.5 mL/min, detection at 220 nm. The elution positions of Ac-Arg-Ala-Ser-Gln-Asn-Tyr-Pro-Val-Val-NH2 (17-18 min) and Ac-Arg-Ala-Ser-Gln-Asn-Tyr (10-11 min) are confirmed with authentic material. Initial rates of Ac-Arg-Ala-Ser-Gln-Asn-Tyr formation are determined from integration of these peaks, and typically, the inhibitory properties of the synthetic compounds are determined from slope/intercept analysis of a plot of 1/v vs. [inhibitor] (Dixon analysis). Ki values resulting from this type of primary analysis are accurate for competitive inhibitors only, and under conditions in which the Michaelis constant of the substrate used is well determined.
row,Structure (SMILES),Ki
1,"COC(=O)[C@@H](NC(=O)[C@@H](NC(=O)C(C)N1CCC(C(C)NC(=O)[C@H](C)N)=CC(Cc2ccccc2)C1=O)C(C)C)C(C)C (stereo partly drawn) [Example 1, 2-[3-benzyl-5-(1-alanylamino-ethyl)-2,3,6,7-tetrahydro-1H-2-oxo-azepin-1-yl]-1-oxo-propyl-valinyl-valine methyl ester]",100 µM
2,"COC(=O)[C@@H](NC(=O)[C@@H](NC(=O)C(C)N1CCC(C(C)NC(=O)[C@H](C)N)=CC(Cc2ccccc2)C1)C(C)C)C(C)C (stereo partly drawn) [Example 2, 2-[3-benzyl-5-(1-alanylamino-ethyl)-2,3,6,7-tetrahydro-1H-azepin-1-yl]-1-oxo-propyl-valinyl-valine methyl ester]",0.6 µM
3,"COC(=O)[C@@H](NC(=O)[C@@H](NC(=O)C(C)N1CCC(C(C)NC(=O)[C@@H](N)Cc2ccccc2)=CC(Cc2ccccc2)C1)C(C)C)C(C)C (stereo partly drawn) [Example 3, 2-[3-benzyl-5-(1-(phenylalanyl)amino-ethyl)-2,3,6,7-tetrahydro-1H-azepin-1-yl]-1-oxo-propyl-valinyl-valine methyl ester]",3.6 µM
